Measured values published in publication PMC10095932 (Molecules, 2023).
Where a SMILES comes first, the peptide text is derived from it. Bridges are numbered along the chain shown (N, C = ends).

Tests used:
human NPR-A = target: T1, human NPR-A (Homo sapiens, UniProt P16066); assay: cGMP ALPHAscreen, cGMP production in HEK 293 cells transiently overexpressing hNPR-A; assay type: cell-based; conditions: HEK 293 cells overexpressing hNPR-A
T1 construct: expressed in transfected cells; host or cells: HEK 293 cells, transient, Lipofectamine 2000
T1 sequence (P16066 33-1061): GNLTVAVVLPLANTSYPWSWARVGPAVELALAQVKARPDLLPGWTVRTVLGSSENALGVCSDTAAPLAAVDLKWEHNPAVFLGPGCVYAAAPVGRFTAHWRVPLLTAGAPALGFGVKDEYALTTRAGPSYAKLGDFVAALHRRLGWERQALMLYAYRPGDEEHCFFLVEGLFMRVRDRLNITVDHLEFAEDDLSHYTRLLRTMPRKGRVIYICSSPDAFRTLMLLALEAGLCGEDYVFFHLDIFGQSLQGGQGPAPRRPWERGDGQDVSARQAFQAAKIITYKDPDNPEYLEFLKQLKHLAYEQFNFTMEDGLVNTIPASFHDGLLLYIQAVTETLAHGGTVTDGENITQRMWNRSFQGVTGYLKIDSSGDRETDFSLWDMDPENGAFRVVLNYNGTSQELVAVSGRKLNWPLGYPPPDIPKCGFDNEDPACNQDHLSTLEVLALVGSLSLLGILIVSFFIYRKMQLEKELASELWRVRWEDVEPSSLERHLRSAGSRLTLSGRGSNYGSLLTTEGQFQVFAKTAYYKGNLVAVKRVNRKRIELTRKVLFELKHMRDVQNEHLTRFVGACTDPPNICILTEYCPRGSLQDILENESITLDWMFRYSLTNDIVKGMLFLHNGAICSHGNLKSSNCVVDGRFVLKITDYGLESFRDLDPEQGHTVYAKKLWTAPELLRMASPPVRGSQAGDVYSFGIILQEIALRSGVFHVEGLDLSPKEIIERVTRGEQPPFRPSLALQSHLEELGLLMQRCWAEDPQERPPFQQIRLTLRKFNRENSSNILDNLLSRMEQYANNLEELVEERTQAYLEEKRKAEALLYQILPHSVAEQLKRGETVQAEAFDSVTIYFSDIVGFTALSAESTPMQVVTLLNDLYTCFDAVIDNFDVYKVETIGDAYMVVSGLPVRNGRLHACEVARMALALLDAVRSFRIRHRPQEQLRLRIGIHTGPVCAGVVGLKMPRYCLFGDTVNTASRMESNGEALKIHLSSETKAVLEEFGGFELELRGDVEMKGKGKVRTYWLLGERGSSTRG
Procedure: Cells were cultured at 5% CO2 and 37 °C. HEK 293 cells were cultured in high glucose DMEM (Gibco, Carlsbad, CA, USA) supplemented with 10% FBS, and 1% penicillin/streptomycin. HEK 293 cells were seeded in media lacking penicillin/streptomycin 24 to 48 h pre-transfection. PC12 cells were cultured in high glucose DMEM (Gibco) supplemented with 10% FBS and 1% penicillin/streptomycin.
HEK 293 cells were transfected using the lipofectamine 2000 transfection protocol (Invitrogen). Cells (95% confluence) were transfected with 45% pcDNA3.1/hNPR-A, 45% pcDNA3.1, and 10% pEGFP-NI to the optimal DNA concentration specified in the protocol. The co-transfection with pEGFP-NI plasmid allowed the determination of the transfection efficiency. This was assessed by the estimation of the number of GFP-expressing cells using an Olympus IX70 inverted fluorescence microscope. Transfected cells were used for assay purposes within 24 h.
The cGMP ALPHAscreen was performed using the ALPHAscreen Protein A detection kit and the biotinylated cGMP supplement (Perkin Elmer, Waltham, MA, USA) with rabbit anti-cGMP polyclonal antibody (Biovision, Mountain View, CA, USA). Cells were detached from the flask and the resulting pellet was resuspended in stimulation buffer (HBSS supplemented with 0.1% w/v BSA and 1 mM IBMX at 37 °C). Cells were added to a white 384-well Optiplate (Perkin Elmer, Waltham, USA) to 30,000 cells per well for HEK 293 cells and 10,000 cells per well for PC12 cells. Cells were incubated with different concentrations of test peptides (concentration range of 1 × 10^−5 to 1 × 10^−11 M in stimulation buffer) at 37 °C for 30 min. Cells were lysed with lysis buffer (1 M HEPES, 0.3% Tween-20, 1% BSA in H2O, pH 7.4). Then 5 μL acceptor-bead mix was added to each well under subdued lighting conditions, followed by 5 μL of donor-bead mix. Plates were incubated for ~12 h, slowly shaking at room temperature. After incubation, the ALPHAscreen signal was measured using an EnVision plate reader (Perkin Elmer). The standard curve consisted of cGMP in a concentration range of 1 × 10^−6 to 1 × 10^−12 M. All data points were acquired in triplicate and were analyzed using GraphPad Prism 5.0 software (GraphPad Software, Inc., San Diego, CA, USA).

NEP = target: T2, NEP (Homo sapiens, UniProt P08473); assay: Stability to neutral endopeptidase 24.11 (NEP); assay type: in vitro ADME; conditions: 3 h; 100 μL of 500 μM peptide, 500 ng NEP, 100 mM Tris.HCl, 150 mM NaCl, pH 7.4, 37 °C, RP-HPLC peak height
T2 construct: purchased R&D Systems (Minneapolis, MN, USA)
Procedure: NEP and plasmin stability: About 100 μL of 500 μM peptide was incubated with 500 ng NEP (activity 400 pmol min^−1 μg^−1) or 10 μg plasmin (0.51 U mg^−1, 0.51 μmol min^−1 mg^−1) in 100 mM Tris.HCl and 150 mM NaCl (pH 7.4) at 37 °C. Then, 50 μL aliquots were removed at designated times, quenched by heating to 100 °C for 4 min, and stored at −20 °C until subjected to RP-HPLC analysis.

T2 sequence (P08473 whole entry): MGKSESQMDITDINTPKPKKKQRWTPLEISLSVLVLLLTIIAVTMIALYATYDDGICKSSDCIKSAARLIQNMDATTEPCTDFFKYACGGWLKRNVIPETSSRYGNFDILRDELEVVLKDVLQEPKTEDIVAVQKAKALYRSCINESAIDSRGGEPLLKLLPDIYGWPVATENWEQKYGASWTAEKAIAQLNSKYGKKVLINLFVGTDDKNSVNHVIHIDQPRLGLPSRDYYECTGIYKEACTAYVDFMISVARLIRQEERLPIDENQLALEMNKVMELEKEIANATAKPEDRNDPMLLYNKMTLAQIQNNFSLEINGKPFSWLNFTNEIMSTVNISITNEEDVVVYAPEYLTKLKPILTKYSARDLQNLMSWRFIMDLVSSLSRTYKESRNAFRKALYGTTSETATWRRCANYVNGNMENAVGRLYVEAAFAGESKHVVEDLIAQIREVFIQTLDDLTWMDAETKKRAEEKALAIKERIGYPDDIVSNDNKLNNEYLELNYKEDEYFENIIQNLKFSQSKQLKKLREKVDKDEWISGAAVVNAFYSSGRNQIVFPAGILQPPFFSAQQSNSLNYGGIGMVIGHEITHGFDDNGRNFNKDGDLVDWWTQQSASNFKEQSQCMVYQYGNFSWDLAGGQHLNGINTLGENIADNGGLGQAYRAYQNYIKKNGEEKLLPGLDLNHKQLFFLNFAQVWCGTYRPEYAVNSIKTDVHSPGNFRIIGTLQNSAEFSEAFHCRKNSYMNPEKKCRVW

In the case of `CC[C@H](C)[C@H](NC(=O)[C@H](CCCCN)NC(=O)[C@H](CO)NC(=O)[C@H](CC(=O)O)NC(=O)[C@@H](N)CO)C(=O)NCC(=O)N[C@@H](CC(N)=O)C(=O)NCC(=O)N[C@H]1CSSC[C@@H](C(=O)N[C@@H](CC(N)=O)C(=O)N[C@@H](CCCNC(=N)N)C(=O)N[C@H](C(=O)N[C@@H](CCSC)C(=O)N[C@@H](CCC(N)=O)C(=O)N[C@@H](CC(N)=O)C(=O)N2CCC[C@H]2C(=O)N2CCC[C@H]2C(=O)N[C@@H](CCCCN)C(=O)N[C@@H](CCCCN)C(=O)N[C@@H](Cc2ccccc2)C(=O)N[C@@H](CO)C(=O)NCC(=O)N[C@@H](CCC(=O)O)C(=O)O)[C@@H](C)CC)NC(=O)CNC(=O)[C@H](CC(C)C)NC(=O)CNC(=O)[C@H](CO)NC(=O)[C@H](C(C)C)NC(=O)[C@H](CO)NC(=O)CNC(=O)[C@H]([C@@H](C)CC)NC(=O)[C@H](CCCNC(=N)N)NC(=O)[C@H](CC(=O)O)NC(=O)[C@H](CC(C)C)NC(=O)[C@@H]2CCCN2C(=O)[C@H](Cc2ccccc2)NC(=O)CNC(=O)[C@H](Cc2ccccc2)NC1=O` [TNPc] (H-SDSKIGNGCFGFPLDRIGSVSGLGCNRIMQNPPKKFSGE-OH; disulfide 9-25), the Emax at 10 µM (human NPR-A; HEK293, read-out: cGMP production, % of the maximum response (compared with DNP, hANP, hBNP), at 10 μM) is reported as ~30%, the EC50 (human NPR-A; 30 min at 37 °C, cGMP ALPHAscreen, three separate experiments in triplicate, read-out: hNPR-A EC50 (95% CI), potency to stimulate cGMP production) is reported as > 10 µM and the “state after incubation with NEP” value (NEP) is reported as “remained intact”.
